{
  "source": "patent US6977270B2",
  "about": "“Tocotrienolquinone cyclization product with an anti-hypercholesterol effect” (BASF Aktiengesellschaft, priority 2000, dated 2005)",
  "tested_on": "Cholesterol Synthesis in HepG2 Cells",
  "assay": "Determination of cholesterol synthesis in HepG2 cells (14C-acetate incorporation into the non-saponifiable lipid/sterol fraction)",
  "assay_type": "cell-based",
  "conditions": "mean of three",
  "description": "Determination of Cholesterol Synthesis in HepG2 Cells (cf. Fahrner, J. et al., Eur. J. Biochem. 213: 1067-1073 (1993); Gebhardt, R., Lipids 28: 613-619 (1993); Pill, J. et al., Z. Anal. Chem. 332: 512-513 (1985)\nTo detect an effect on cholesterol biosynthesis by test substances, HepG2 cell cultures were used. These cells were cultured up to confluence in 35 mm 6-well cell culture incubation dishes in DMEM medium (Gibco, Eggenstein, Germany) with 2 mM gentamin, 10% fetal calf serum, 40 U/ml of streptomycin and 50 U/ml of penicillin. Frozen cells were cultured and passaged for one week before use. The confluent cells were then incubated in serum-free Williams Medium E for 4 hours at 37° C. with the test substances. ^14C-Acetate (18.5 kBq/ml; 0.5 μCi/ml) was then added to the solutions. The test substances were diluted in DMSO and used at the concentrations specified. […]\nIncorporation of ^14C-acetate into the non-saponifiable lipid fraction (sterol fraction) was determined by the following method: 1.4 ml of homogenates were incubated with 2.8 ml of 0.5 M KOH in EtOH with shaking for 1 hour at 70° C. […] The ^14C activity in the samples was determined, after addition of 10 ml of scintillation solution (Ultima Gold®, Packard, Merident, Conn.) in a scintillation counter. The measured values shown are to be understood as means of three independent culture dishes per test solution. […]",
  "data": [
    {"smiles": "CC(C)=CCC/C(C)=C/CC/C(C)=C/CC[C@]1(C)CCc2cc(O)c(C)c(C)c2O1", "note": "[R-γ-Tocotrienol]", "values": [
      {"measurement": "inhibition of 14C-acetate incorporation", "setting": "concentration 5×10^−6 M, relative to DMSO control (100%)", "result": "approximately 20%"},
      {"measurement": "maximum significant inhibition of 14C-acetate incorporation", "setting": "concentrations ≧5×10^−5 M, relative to DMSO control", "result": "approximately 50%"}
    ]}
  ]
}
